Where two headings read alike, the source gives them in different places.
Assays:
Assay type in all cases: in vivo
[1] = test system: Puccinia recondita tritici; experiment: Leaf Rust of Wheat (PUCCRT), foliar spray, percent disease control; conditions: tested at 8.3 ppm
Method: The activity of the compounds as effective fungicides was determined by applying the compounds to plants and observing control of fungal disease. The compounds were formulated at 200 ppm in 10 vol. % acetone plus 90 vol. % Triton X water (deionized water 99.99 wt %+0.01 wt % Triton X100), giving a “formulated test compound.” In a few cases, compounds were formulated at 75 or 8.3 ppm rather than 200 ppm in 10 vol. % acetone plus 90 vol. % Triton X water (deionized water 99.99 wt. %+0.01 wt. % Triton X100), giving a “formulated test compound.” Formulated test compounds were applied to plants using a turn table sprayer fitted with two opposing air atomization nozzles which delivered approximately 1500 L/ha of spray volume. All plants were inoculated with spores of the fungus the day after treatment, then incubated in an environment conducive to disease development. Disease severity was evaluated 4 to 15 days later, depending on the disease and the speed of disease development. The following experiments were performed in the laboratory to determine the fungicidal efficacy of the compounds of the invention. […] Each pot contained 3-8 seedlings. These plants were sprayed until wet with the formulated test compounds. On the following day, the leaves were inoculated with an aqueous spore suspension of Puccinia recondita tritici and the plants were kept in high humidity overnight to permit spores to germinate and infect the leaf. The plants were then transferred to a greenhouse until disease developed on untreated control plants. […] The effectiveness of the test compounds at controlling disease when sprayed on leaves was determined by assessing the severity of disease on treated plants, then converting the severity to percent control based on the level of disease on untreated, inoculated plants. Data are the level (in percent) at which the given disease was controlled when the given compound was applied to the foliage of the plants at 200 ppm. In a few cases (noted in the table) the compound was applied to the plants at 75 ppm or 8.3 ppm.

[2] = test system: Leptosphaeria nodorum; experiment: Glume Blotch of Wheat (LEPTNO), foliar spray, percent disease control; conditions: Parastagonospora nodorum, tested at 75 ppm
Method: The activity of the compounds as effective fungicides was determined by applying the compounds to plants and observing control of fungal disease. The compounds were formulated at 200 ppm in 10 vol. % acetone plus 90 vol. % Triton X water (deionized water 99.99 wt %+0.01 wt % Triton X100), giving a “formulated test compound.” In a few cases, compounds were formulated at 75 or 8.3 ppm rather than 200 ppm in 10 vol. % acetone plus 90 vol. % Triton X water (deionized water 99.99 wt. %+0.01 wt. % Triton X100), giving a “formulated test compound.” Formulated test compounds were applied to plants using a turn table sprayer fitted with two opposing air atomization nozzles which delivered approximately 1500 L/ha of spray volume. All plants were inoculated with spores of the fungus the day after treatment, then incubated in an environment conducive to disease development. Disease severity was evaluated 4 to 15 days later, depending on the disease and the speed of disease development. The following experiments were performed in the laboratory to determine the fungicidal efficacy of the compounds of the invention. […] Each pot contained 3-20 seedlings. These plants were sprayed until wet with the formulated test compound. On the following day, the leaves were inoculated with an aqueous spore suspension of Leptosphaeria nodorum and the plants were kept in high humidity (one day in a dark dew chamber followed by four days in a lighted dew chamber) to permit spores to germinate and infect the leaf. The plants were then transferred to a greenhouse until disease developed on untreated control plants. […] The effectiveness of the test compounds at controlling disease when sprayed on leaves was determined by assessing the severity of disease on treated plants, then converting the severity to percent control based on the level of disease on untreated, inoculated plants. Data are the level (in percent) at which the given disease was controlled when the given compound was applied to the foliage of the plants at 200 ppm. In a few cases (noted in the table) the compound was applied to the plants at 75 ppm or 8.3 ppm.

[3] = test system: Magnaporthe grisea; experiment: whole plant or invertebrate; conditions: Pyricularia oryzae, foliar, read-out: PYRIOR percent control
[4] = test system: DROSME, AEDSAE, LAPHEG, or HELIVI; experiment: Insecticidal activity, active if any of DROSME, AEDSAE, LAPHEG or HELIVI was controlled at 80% or more; conditions: read-out: >80% mortality on any insect species @ 4000 ppm
[5] = test system: Colletotricum lagenarium; experiment: Cucumber Anthracnose (COLLLA), foliar spray, percent disease control; conditions: foliar
[6] = test system: Pseudoperonospora cubensis; experiment: Cucumber Downy Mildew (PSPECU), foliar spray, percent disease control; conditions: foliar, read-out: PSPECU percent control
[7] = test system: Cochliobolus sativus; experiment: Spot Blotch of Wheat (COCHSA), foliar spray, percent disease control
[8] = Bipolaris sorokiniana, foliar; read-out: COCHSA percent control

| SMILES | pest or weed control at 8.3 ppm [1] [%] | pest or weed control at 75 ppm [2] [%] | pest or weed control at 8.3 ppm [3] [%] | pest or weed control at 4000 ppm [4] [%] | pest or weed control at 200 µg/mL [5] [%] | pest or weed control at 200 µg/mL [6] [%] | pest or weed control at 200 µg/mL [7, 8] [%] | pest or weed control at 200 µg/mL ([7]; Bipolaris sorokiniana, foliar, read-out: COCHSA percent control) [%] |
| --- | --- | --- | --- | --- | --- | --- | --- | --- |
| Cc1ccnc(Cl)c1Oc1ccc(CCNc2ncnc3nccnc23)cc1 [Compound 98] | 50 to 79 | 0 to 49 | 50 to 79 | – | – | – | – | – |
| COc1ccc(CCNc2ncnc3nccnc23)cc1 [Compound 45] | 50 to 79 | 0 to 49 | 80 to 100 | – | – | – | – | – |
| FC(F)(F)c1cnc2nc(Oc3ccc(CCNc4ncnc5nccnc45)cc3)sc2c1 [Compound 32] | 50 to 79 | 0 to 49 | 50 to 79 | – | – | – | – | – |
| N#Cc1c(Cl)cncc1Oc1cccc(CCNc2ncnc3nccnc23)c1 [Compound 70] | 50 to 79 | 0 to 49 | 50 to 79 | – | – | – | – | – |
| Fc1cnc(C(F)(F)F)c(F)c1Oc1ccc(CCNc2ncnc3ncc(Cl)nc23)cc1 [Compound 117] | 50 to 79 | 50 to 79 | 80 to 100 | > 80 | – | – | – | – |
| COc1ccc2c(c1)CC(Nc1ncnc3ncc(C)nc13)C2 (centres unmarked) [Compound 116] | 0 to 49 | 0 to 49 | 50 to 79 | > 80 | – | – | – | – |
| FC(F)(F)c1ccnc(Oc2ccc(CCNc3ncnc4nccnc34)cc2C(F)(F)F)c1 [Compound 227] | 80 to 100 | 80 to 100 | – | – | – | – | – | – |
| CC(C)(C)OC(=O)c1ccc(Oc2ccc(CCNc3ncnc4nccnc34)cc2)cc1 [Compound 154] | 80 to 100 | 80 to 100 | 80 to 100 | – | – | – | – | – |
| Fc1cc(Oc2ccc(C(F)(F)F)cn2)ccc1CCNc1ncnc2nccnc12 [Compound 105] | 80 to 100 | 80 to 100 | 80 to 100 | – | – | – | – | – |
| FC(F)(F)c1ccnc(Oc2ccc(CCOc3ncnc4nccnc34)cc2)c1 [Compound 206, 4-{2-[4-(4-Trifluoromethylpyridin-2-yloxy)-phenyl]-ethoxy}-pteridine] | 0 to 49 | 0 to 49 | – | – | – | – | – | – |
| Cc1nc(NCCc2ccc(Oc3cc(C(F)(F)F)ccn3)cc2)c2nc(C)c(C)nc2n1 [Compound 226] | 0 to 49 | 0 to 49 | 0 to 49 | – | – | – | – | – |
| Clc1csc(Oc2ccc(CCNc3ncnc4nccnc34)cc2)n1 [Compound 31] | 50 to 79 | 0 to 49 | 80 to 100 | – | – | – | – | – |
| Fc1c(F)c(C(F)(F)F)c(F)c(F)c1Oc1ccc(CCNc2ncnc3nccnc23)cc1 [Compound 112] | – | – | – | > 80 | 0 to 49 | 80 to 100 | 0 to 49 | – |
| CC(C)(C)OC(=O)c1ccnc(Oc2ccc(CCNc3ncnc4nccnc34)cc2)c1 [Compound 192] | – | – | – | > 80 | 80 to 100 | 80 to 100 | 0 to 49 | – |
| Cc1cc(CCNc2ncnc3nccnc23)ccc1Oc1cncc(Cl)c1C#N [Compound 142] | – | – | – | > 80 | 0 to 49 | 80 to 100 | 0 to 49 | – |
| Cc1cc(Oc2cc(C(C)(F)F)ccn2)c(C)cc1CCNc1ncnc2nccnc12 [Compound 194] | – | – | – | > 80 | 80 to 100 | 80 to 100 | 0 to 49 | – |
| Cc1ccnc(Oc2ccc(CCNc3ncnc4nccnc34)cc2)c1F [Compound 99] | 80 to 100 | 50 to 79 | 80 to 100 | – | – | – | – | – |
| Fc1cc(CCNc2ncnc3nccnc23)ccc1Oc1cc(C(F)(F)F)ccn1 [Compound 93] | – | – | – | > 80 | 80 to 100 | 80 to 100 | 50 to 79 | – |
| CCc1ncnc(Oc2ccc(CCNc3ncnc4nccnc34)cc2)c1Cl [Compound 146] | – | – | – | > 80 | 50 to 79 | 80 to 100 | 0 to 49 | – |
| Cc1cc(CCNc2ncnc3nccnc23)ccc1Oc1cc(C(F)(F)F)ccn1 [Compound 109] | – | – | – | > 80 | 50 to 79 | 80 to 100 | 0 to 49 | – |
| COc1cccc(Oc2ccc(CCNc3ncnc4nccnc34)cc2)n1 [Compound 10, {2-[4-(6-Methoxypyridin-2-yloxy)-phenyl]-ethyl}-pteridin-4-yl-amine] | – | – | – | > 80 | 0 to 49 | 80 to 100 | 0 to 49 | – |
| FC(F)(F)c1cccc(-c2ccc(CCNc3ncnc4nccnc34)cc2)c1 [Compound 122] | – | – | – | > 80 | 0 to 49 | 50 to 79 | – | 0 to 49 |
| N#Cc1ccnc(Oc2ccc(CCNc3ncnc4nccnc34)cc2)c1 [Compound 8] | – | – | – | > 80 | 80 to 100 | 80 to 100 | 0 to 49 | – |
| Fc1cc(Oc2ncc(C(F)(F)F)cc2F)ccc1CCNc1ncnc2nccnc12 [Compound 114] | – | – | – | > 80 | 0 to 49 | 80 to 100 | 0 to 49 | – |
